Experimental data as given in ChEMBL document CHEMBL1151651, “Antimicrobially active alkaloids from Tabernaemontana chippii” (1985).
Converted amounts (≈) assume the structure as drawn.

Columns and labels:
Format in all cases: functional
[1] = tested on: Escherichia coli; experiment: Antimicrobial activity against Escherichia coli using pH 4.0 buffer as solvent by agar diffusion test
[2] = tested on: Staphylococcus aureus; experiment: Antimicrobial activity against Staphylococcus aureus using pH 4.0 buffer as solvent by agar diffusion test
[3] = tested on: Pseudomonas aeruginosa; experiment: Antimicrobial activity against Pseudomonas aeruginosa using pH 4.0 buffer as solvent by agar diffusion test
[4] = tested on: Bacillus subtilis; experiment: Antimicrobial activity against Bacillus subtilis using pH 4.0 buffer as solvent by agar diffusion test
[5] = tested on: Bacillus subtilis; experiment: Antimicrobial activity against Bacillus subtilis using distilled water as solvent by agar diffusion test
[6] = tested on: Staphylococcus aureus; experiment: Antimicrobial activity against Staphylococcus aureus using distilled water as solvent by agar diffusion test
[7] = tested on: Pseudomonas aeruginosa; experiment: Antimicrobial activity against Pseudomonas aeruginosa using distilled water as solvent by agar diffusion test
[8] = tested on: Escherichia coli; experiment: Antimicrobial activity against Escherichia coli using distilled water as solvent by agar diffusion test

Row | Structure (SMILES) | MIC [1] | MIC [2] | MIC [3] | MIC [4] | MIC [5] | MIC [6] | MIC [7] | MIC [8]
1 | CC[C@H]1C[C@H]2C[C@@]3(C(=O)OC)c4[nH]c5cc(OC)ccc5c4CCN(C2O)[C@@H]13 (some centres undefined) | 500 mg/L (≈ 1300 µM) | 500 mg/L (≈ 1300 µM) | 300 mg/L (≈ 780 µM) | 50 mg/L (≈ 130 µM) |  |  |  | 
2 | CC[C@H]1C[C@H]2C[C@@]3(C(=O)OC)c4[nH]c5cc(OC)c(OC)cc5c4CCN(C2O)[C@@H]13 (some centres undefined) | > 1000 mg/L | 140 mg/L (≈ 338 µM) | > 1000 mg/L | 60 mg/L (≈ 145 µM) |  |  |  | 
3 | CN[C@@H]1[C@H](O[C@H]2[C@H](O[C@H]3[C@H](O)[C@@H](O)[C@H](N=C(N)N)[C@@H](O)[C@@H]3N=C(N)N)O[C@@H](C)[C@]2(O)C=O)O[C@@H](CO)[C@H](O)[C@H]1O [STREPTOMYCIN] | 80 mg/L (≈ 138 µM) | 5 mg/L (≈ 8.6 µM) | 7 mg/L (≈ 12 µM) | 1 mg/L (≈ 1.72 µM) | 0.2 mg/L (≈ 0.344 µM) | 1 mg/L (≈ 1.72 µM) | 12 mg/L (≈ 20.6 µM) | 0.5 mg/L (≈ 0.86 µM)
4 | C=CC1CN(C)[C@@H]2Cc3c([nH]c4ccccc34)[C@@H](/C=C3\c4[nH]c5ccccc5c4CN4CC[C@H]3/C(=C\C)C4)C[C@@H]1C2C(=O)OC (some centres undefined) [VOBAPARICINE] | 100 mg/L (≈ 166 µM) |  |  | 50 mg/L (≈ 83.2 µM) |  |  |  | 
5 | C=CC1CN(C)[C@H]2Cc3c([nH]c4ccccc34)[C@H](c3c(OC)ccc4c5c([nH]c34)[C@]3(C(=O)OC)C[C@@H]4C[C@H](CC)[C@@H]3N(CC5)C4)C[C@H]1C2C(=O)OC (some centres undefined) [CONODURINE] | 70 mg/L (≈ 99.3 µM) | 50 mg/L (≈ 70.9 µM) | 400 mg/L (≈ 567 µM) | 4 mg/L (≈ 5.67 µM) |  |  |  | 
6 | C=CC1CN(C)[C@H]2Cc3c([nH]c4ccccc34)[C@H](c3cc4c5c([nH]c4cc3OC)[C@]3(C(=O)OC)C[C@@H]4C[C@H](CC)[C@@H]3N(CC5)C4O)C[C@H]1C2C(=O)OC (some centres undefined) | 170 mg/L (≈ 236 µM) | 65 mg/L (≈ 90.2 µM) | 65 mg/L (≈ 90.2 µM) | 8 mg/L (≈ 11.1 µM) |  |  |  | 
7 | C=CC1CN(C)[C@H]2Cc3c([nH]c4ccccc34)[C@H](c3cc4c5c([nH]c4cc3OC)[C@]3(C(=O)OC)C[C@@H]4C[C@H](CC)[C@@H]3N(CC5)C4)C[C@H]1C2C(=O)OC (some centres undefined) [CONODURAMINE] | 110 mg/L (≈ 156 µM) | 35 mg/L (≈ 49.7 µM) | 400 mg/L (≈ 567 µM) | 15 mg/L (≈ 21.3 µM) |  |  |  | 
8 | C=CC1CN(C)[C@H]2Cc3c([nH]c4ccccc34)[C@H](c3c(OC)ccc4c5c([nH]c34)[C@]3(C(=O)OC)C[C@@H]4C[C@H](CC)[C@@H]3N(CC5)C4O)C[C@H]1C2C(=O)OC (some centres undefined) | 750 mg/L (≈ 1040 µM) | 45 mg/L (≈ 62.4 µM) | 150 mg/L (≈ 208 µM) | 14 mg/L (≈ 19.4 µM) |  |  |  | 
